Assay: xn = mol fraction of the nth substance listed
Settings: 101 kPa

CCCC[n+]1cccc(C)c1.O=S(=O)([N-]S(=O)(=O)C(F)(F)F)C(F)(F)F + CCO
speed of sound [m/s]
Settings | 298.15 K | 303.15 K | 308.15 K
x2 = 0 | – | 1237.1 | –
x2 = 0.0533 | – | – | 1223.8
x2 = 0.0924 | 1244.5 | 1233.1 | –
x2 = 0.1963 | 1239.3 | 1227.9 | 1216.6
x2 = 0.3011 | 1233.2 | 1221.7 | 1210.3
x2 = 0.3959 | 1226.5 | 1214.9 | 1203.4
x2 = 0.4982 | – | 1206 | 1194.3
x2 = 0.599 | – | – | 1183.2
x2 = 0.6829 | 1195.9 | 1183.6 | 1171.3
x2 = 0.7355 | 1187.7 | 1175.2 | –
x2 = 0.8008 | 1176.4 | 1163.2 | 1150.3
x2 = 0.8991 | 1156.9 | 1142.8 | 1128.7
x2 = 0.9436 | 1149.9 | 1134.8 | 1119.9

CCCO + CCCC[N+]1(C)CCCC1.O=S(=O)([N-]S(=O)(=O)C(F)(F)F)C(F)(F)F
x1 = 1
Settings | speed of sound [m/s]
298.15 K | 1206.4
303.15 K | 1189.3

CC(C)O + CCCC[n+]1cccc(C)c1.O=S(=O)([N-]S(=O)(=O)C(F)(F)F)C(F)(F)F
x1 = 1
Settings | speed of sound [m/s]
298.15 K | 1139.6
303.15 K | 1122

CCCO + CCCC[n+]1cccc(C)c1.O=S(=O)([N-]S(=O)(=O)C(F)(F)F)C(F)(F)F
x1 = 1
Settings | speed of sound [m/s]
298.15 K | 1206.4
303.15 K | 1189.3
308.15 K | 1172.3

CCCC[N+]1(C)CCCC1.O=S(=O)([N-]S(=O)(=O)C(F)(F)F)C(F)(F)F + CC(C)O
speed of sound [m/s]
Settings | 298.15 K | 303.15 K | 308.15 K
x2 = 0 | 1269.3 | – | 1247.1
x2 = 0.0593 | 1264.9 | 1253.7 | 1243.5
x2 = 0.1319 | – | 1248.7 | 1237.4
x2 = 0.2344 | 1250.8 | 1239.1 | –
x2 = 0.3929 | 1234.8 | 1222.9 | 1211.2
x2 = 0.4935 | 1222.3 | 1210.2 | 1198.1
x2 = 0.5927 | 1207.5 | – | 1182.9
x2 = 0.718 | 1184.1 | 1171.2 | 1158.4
x2 = 0.8015 | 1165.1 | 1151.8 | 1138.5
x2 = 0.9018 | 1143 | 1129.1 | 1115.9
x2 = 0.9491 | 1138.1 | 1122.5 | 1106.8

CCCC[N+]1(C)CCCC1.O=S(=O)([N-]S(=O)(=O)C(F)(F)F)C(F)(F)F + CCCO
speed of sound [m/s]
Settings | x2 = 0 | x2 = 0.0545 | x2 = 0.0931 | x2 = 0.1903 | x2 = 0.2935 | x2 = 0.3972 | x2 = 0.5916 | x2 = 0.7837 | x2 = 0.8975 | x2 = 0.9472
298.15 K | 1269.3 | 1267 | 1264.9 | 1259.7 | – | 1246 | 1230 | 1201.2 | 1190.9 | –
303.15 K | 1258.1 | – | 1253.5 | 1248.2 | 1241.7 | 1234.2 | – | 1188 | 1176.4 | 1178
308.15 K | 1247.1 | 1244.4 | 1242.3 | 1236.9 | 1230.2 | 1222.5 | 1206 | 1175 | 1162 | 1162.7

CCCC[N+]1(C)CCCC1.O=S(=O)([N-]S(=O)(=O)C(F)(F)F)C(F)(F)F + CCO
speed of sound [m/s]
Settings | 298.15 K | 303.15 K | 308.15 K
x2 = 0 | 1269.3 | 1258.2 | 1247.1
x2 = 0.0586 | 1266.6 | 1255.3 | 1244.2
x2 = 0.1981 | 1258.6 | 1247.2 | 1235.9
x2 = 0.2834 | 1252.8 | 1241.3 | 1229.9
x2 = 0.4449 | 1238.4 | 1226.6 | 1215
x2 = 0.5133 | 1230.8 | 1218.9 | 1207.1
x2 = 0.6012 | 1219.2 | – | –
x2 = 0.7078 | – | 1189.2 | 1176.8
x2 = 0.7929 | 1184.8 | 1171.6 | –
x2 = 0.8997 | 1158.2 | 1144 | 1129.8
x2 = 0.9492 | – | 1133.2 | –

CCO + CCCC[n+]1cccc(C)c1.O=S(=O)([N-]S(=O)(=O)C(F)(F)F)C(F)(F)F
x1 = 1
Settings | speed of sound [m/s]
298.15 K | 1143.6
303.15 K | 1126.7
308.15 K | 1109.8

CCO + CCCC[N+]1(C)CCCC1.O=S(=O)([N-]S(=O)(=O)C(F)(F)F)C(F)(F)F
x1 = 1
Settings | speed of sound [m/s]
303.15 K | 1126.7
308.15 K | 1109.8

CC(C)O + CCCC[N+]1(C)CCCC1.O=S(=O)([N-]S(=O)(=O)C(F)(F)F)C(F)(F)F
x1 = 1
Settings | speed of sound [m/s]
298.15 K | 1139.6
303.15 K | 1122
308.15 K | 1104.4

CCCC[n+]1cccc(C)c1.O=S(=O)([N-]S(=O)(=O)C(F)(F)F)C(F)(F)F + CCCO
speed of sound [m/s]
Settings | 298.15 K | 303.15 K | 308.15 K
x2 = 0 | 1248.3 | 1237.1 | 1226
x2 = 0.0431 | – | 1235.4 | 1224.3
x2 = 0.0889 | 1244.5 | 1233.4 | 1222.3
x2 = 0.1564 | 1241.8 | – | 1219.1
x2 = 0.2913 | – | 1223.2 | 1211.8
x2 = 0.3788 | 1229.5 | 1217.9 | 1206.3
x2 = 0.5665 | 1215.6 | 1203.5 | 1191.5
x2 = 0.5901 | – | 1201.4 | 1189.3
x2 = 0.6913 | 1204 | 1191.4 | –
x2 = 0.8006 | 1194.1 | 1180.8 | 1167.7
x2 = 0.8947 | 1189.3 | 1174.9 | –
x2 = 0.9467 | 1193.4 | 1178 | 1162.7

CCCC[n+]1cccc(C)c1.O=S(=O)([N-]S(=O)(=O)C(F)(F)F)C(F)(F)F + CC(C)O
speed of sound [m/s]
Settings | 298.15 K | 303.15 K | 308.15 K
x2 = 0 | 1248.3 | 1237.1 | 1226
x2 = 0.0534 | 1245.3 | 1234.1 | 1222.2
x2 = 0.1034 | – | 1231 | 1219.8
x2 = 0.1577 | – | 1227.4 | 1216.1
x2 = 0.1756 | 1237 | 1225.7 | 1214.3
x2 = 0.3062 | 1227.4 | 1215.8 | 1204.2
x2 = 0.3957 | 1220.8 | 1209 | 1197.1
x2 = 0.51 | 1208.6 | 1197.3 | 1185.3
x2 = 0.6002 | 1197.7 | 1185.3 | 1173
x2 = 0.7046 | 1182.1 | 1169.3 | 1156.5
x2 = 0.8006 | – | – | 1135.4
x2 = 0.8988 | – | 1129.5 | 1115.2
